Values of other authors in patent US9555003B2, “Oral solid formulation of compound anti-tubercular drug and preparation method thereof” (priority 2011, dated 2017).
Values after ≈ are worked out from the molar mass of the structure shown.

Key:
[1] = not given; remark: listed apart in the source
[2] = system: tubercle bacillus

| SMILES | solubility in water | Vd ([1]; in vivo) | protein binding rate ([1]; in vivo) | oral absorption rate ([1]; oral) | time to peak serum drug concentration after administration ([1]; oral) | solubility in ethanol | solubility in ethyl ether | intra-cellular concentration for inhibiting tubercle bacillus relative to extracellular concentration ([2]; folds lower than the extracellular concentration) | concentration at which tubercle bacillus is eliminated ([2]; tubercle bacillus) | minimum inhibitory concentration ([2]; tubercle bacillus) |
| --- | --- | --- | --- | --- | --- | --- | --- | --- | --- | --- |
| CC[C@H](CO)NCCN[C@H](CC)CO.Cl.Cl [Ethambutol hydrochloride] | easily soluble | – | – | – | – | – | – | – | – | – |
| NNC(=O)c1ccncc1 [Isoniazid, 4-pyridylcarbonylhydrazine] | easily soluble | 0.61 ± 0.11 L/kg | very low | 90% | 1 to 2 h | slightly soluble | very slightly soluble | – | – | – |
| NC(=O)c1cnccn1 [Pyrazinamide] | slightly soluble | – | – | – | – | slightly soluble | very slightly soluble | 10 folds | 50 µg/mL | 12.5 µg/mL (≈ 102 µM) |
| CO[C@H]1/C=C/O[C@@]2(C)Oc3c(C)c(O)c4c(O)c(c(/C=N/N5CCN(C)CC5)c(O)c4c3C2=O)NC(=O)/C(C)=C\C=C\[C@H](C)[C@H](O)[C@@H](C)[C@@H](O)[C@@H](C)[C@H](OC(C)=O)[C@@H]1C [Rifampicin] | poorly soluble | – | – | – | – | – | – | – | – | – |
